From patent US11236047B2 (ASTEX THERAPEUTICS LIMITED, priority 2017, dated 2022)

Columns and labels:
MDM2-p53 interaction = MDM2-p53 interaction (Homo sapiens (Human), UniProt Q00987); details: for inhibition at 0.03 µM: read-out: MDM2 % inhibition @0.030; for inhibition at 0.001 µM: read-out: MDM2 % inhibition @0.0010
SN40R2 cells = experiment: Protocol B: SN40R2 CellTiter-Glo luminescent cell viability assay; details: for inhibition at 10 µM: read-out: SN40R2 % inhibition at 10, Protocol B, SN40R2, at 10 μM

Chain of MDM2-p53 interaction (Q00987 whole entry): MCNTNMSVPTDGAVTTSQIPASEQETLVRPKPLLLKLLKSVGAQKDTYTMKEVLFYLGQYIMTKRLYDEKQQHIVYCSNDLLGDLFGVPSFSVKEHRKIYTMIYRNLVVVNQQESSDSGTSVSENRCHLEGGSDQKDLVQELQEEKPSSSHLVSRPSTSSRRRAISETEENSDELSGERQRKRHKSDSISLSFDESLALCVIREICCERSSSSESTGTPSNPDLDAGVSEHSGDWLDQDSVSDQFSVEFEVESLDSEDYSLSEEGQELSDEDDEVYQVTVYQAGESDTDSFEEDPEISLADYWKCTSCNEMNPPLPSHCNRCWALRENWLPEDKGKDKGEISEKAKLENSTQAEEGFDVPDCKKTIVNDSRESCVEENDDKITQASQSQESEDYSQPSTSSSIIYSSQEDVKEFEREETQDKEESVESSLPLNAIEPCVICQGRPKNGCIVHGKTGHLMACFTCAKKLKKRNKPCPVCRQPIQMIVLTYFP

SMILES	inhibition at 0.001 µM (MDM2-p53 interaction)	inhibition at 0.003 µM (MDM2-p53 interaction; read-out: MDM2 % inhibition @0.0030)	inhibition at 0.03 µM (MDM2-p53 interaction)	inhibition at 10 µM (SN40R2 cells)	inhibition at 3 µM (SN40R2 cells; read-out: SN40R2 % inhibition at 3, Protocol B, SN40R2, at 3 μM)
CC[C@](O)(c1cc(F)c2c(c1)C(=O)N(Cc1ncc(C#N)cn1)[C@@]2(O[C@H]1C[C@@H](O)C1)c1ccc(Cl)cc1)C1(F)CCOCC1 [Example 506, 2-{[(1R)-1-(4-chlorophenyl)-7-fluoro-5-[(1S)-1-(4-fluorooxan-4-yl)-1-hydroxypropyl]-3-oxo-1-[cis-3-hydroxycyclobutoxy]-2,3-dihydro-1H-isoindol-2-yl]methyl}pyrimidine-5-carbonitrile]			36%	2%	
CC[C@@](O)(c1cc(F)c2c(c1)C(=O)N(Cc1ncc(C#N)cn1)[C@@]2(O[C@H]1C[C@@H](O)C1)c1ccc(Cl)cc1)C1(F)CCOCC1 [Example 505, 2-{[(1R)-1-(4-chlorophenyl)-7-fluoro-5-[(1R)-1-(4-fluorooxan-4-yl)-1-hydroxypropyl]-3-oxo-1-[cis-3-hydroxycyclobutoxy]-2,3-dihydro-1H-isoindol-2-yl]methyl}pyrimidine-5-carbonitrile]	60%			5%	
CCC(O)(c1cc(F)c2c(c1)C(=O)N(Cc1ncc(Cl)cn1)[C@@]2(OC)c1ccc(Cl)cc1)C1(F)CCN(C)CC1 (single isomer, unassigned) [Example 563]	76%			72%	
CCC(O)(c1cc(F)c2c(c1)C(=O)N(Cc1ncc(Cl)cc1O)[C@@]2(O[C@H]1C[C@@H](O)C1)c1ccc(Cl)cc1)c1cn(C)cn1 (single isomer, unassigned) [Example 487]	59%			12%	
CCC(O)(c1cc(F)c2c(c1)C(=O)N(Cc1ncc(Cl)cn1)[C@@]2(OCC1(C#N)CC1)c1ccc(Cl)cc1)C1(F)CCN(C)CC1 (single isomer, unassigned) [Example 564]	86%				10%
CCC(O)(c1cc(F)c2c(c1)C(=O)N(Cc1ccc(C#N)cn1)[C@@]2(OC)c1ccc(Cl)cc1)[C@H]1CC[C@H](O)CC1 (single isomer, unassigned) [Example 521]	77%			11%	
CCC(O)(c1cc(F)c2c(c1)C(=O)N(Cc1ccc(Cl)cn1)[C@@]2(OC[C@@H](C)O)c1ccc(Cl)cc1)C1(F)CCNCC1 (single isomer, unassigned) [Example 549]	85%			33%	
CCC(O)(c1cc(F)c2c(c1)C(=O)N(Cc1ncc(Cl)cn1)[C@@]2(OCCO)c1ccc(Cl)cc1)C1(F)CCN(C)CC1 (single isomer, unassigned) [Example 565]	65%			11%	
CCC(O)(c1cc(F)c2c(c1)C(=O)N(Cc1ncc(Cl)cn1)[C@@]2(OC)c1ccc(Cl)cc1)C1(F)CCN(C2COC2)CC1 (single isomer, unassigned) [Example 552]	79%			7%	
CC[C@@](O)(c1cc(F)c2c(c1)C(=O)N(Cc1ncc(Cl)cn1)[C@@]2(OC)c1ccc(Cl)cc1)C1CCN(C2COC2)CC1 [Example 551, (3R)-3-(4-chlorophenyl)-2-[(5-chloropyrimidin-2-yl)methyl]-4-fluoro-6-[(1S)-1-hydroxy-1-[1-(oxetan-3-yl)piperidin-4-yl]propyl]-3-methoxy-2,3-dihydro-1H-isoindol-1-one]	70%			13%	
CC[C@@](O)(c1cc(F)c2c(c1)C(=O)N(Cc1ncc(Cl)cc1O)[C@@]2(O[C@H]1CCOC1)c1ccc(Cl)cc1)C1CCN(C)CC1 [Example 568, 2-[(5-chloro-3-hydroxypyridin-2-yl)methyl]-3-(4-chlorophenyl)-4-fluoro-6-[(1S)-1-hydroxy-1-(1-methylpiperidin-4-yl)propyl]-3-[(3S)-oxolan-3-yloxy]-2,3-dihydro-1H-isoindol-1-one]	76%			36%	
CC[C@@](O)(c1cc(F)c2c(c1)C(=O)N(Cc1ncc(Cl)cn1)[C@@]2(OCC1(CO)CC1)c1ccc(Cl)cc1)C1CCN(C)CC1 [Example 556, (3R)-3-(4-chlorophenyl)-2-[(5-chloropyrimidin-2-yl)methyl]-4-fluoro-6-[(1S)-1-hydroxy-1-(1-methylpiperidin-4-yl)propyl]-3-{[1-(hydroxymethyl)cyclopropyl]methoxy}-2,3-dihydro-1H-isoindol-1-one]	91%			14%	
CCC(O)(c1cc(F)c2c(c1)C(=O)N(Cc1ncc(Cl)cn1)[C@@]2(OC[C@@H](C)O)c1ccc(Cl)cc1)C1(F)CCNCC1 (single isomer, unassigned) [Example 543]	68%			-6%	
Cc1c[nH]c(C(C)(O)c2cc(F)c3c(c2)C(=O)N(Cc2ccc(Cl)cn2)[C@@]3(OCC2(O)CC2)c2ccc(Cl)cc2)n1 (mixture of isomers) [Example 332, (3R)-3-(4-chlorophenyl)-2-[(5-chloropyridin-2-yl)methyl]-4-fluoro-6-[1-hydroxy-1-(4-methyl-1H-imidazol-2-yl)ethyl]-3-[(1-hydroxycyclopropyl)methoxy]-2,3-dihydro-1H-isoindol-1-one]			60%	5%	

The next lines start with results.

inhibition at 0.001 µM (MDM2-p53 interaction)	inhibition at 0.003 µM (MDM2-p53 interaction; read-out: MDM2 % inhibition @0.0030)	SMILES	inhibition at 0.03 µM (MDM2-p53 interaction)	inhibition at 10 µM (SN40R2 cells)	inhibition at 3 µM (SN40R2 cells; read-out: SN40R2 % inhibition at 3, Protocol B, SN40R2, at 3 μM)
78%		CCC(O)(c1cc(F)c2c(c1)C(=O)N(Cc1ncc(Cl)cn1)[C@@]2(O[C@H]1CCOC1)c1ccc(Cl)cc1)C1CCN(C)CC1 (single isomer, unassigned) [Example 449]		19%	
45%		CCC(O)(c1cc(F)c2c(c1)C(=O)N(Cc1ncc(C#N)cn1)[C@@]2(OCC1(C#N)CC1)c1ccc(Cl)cc1)C1(F)CCN(C)CC1 (single isomer, unassigned) [Example 574]		27%	
82%		CCC(O)(c1cc(F)c2c(c1)C(=O)N(Cc1ncc(C#N)cn1)[C@@]2(O[C@H]1CCOC1)c1ccc(Cl)cc1)C1(F)CCNCC1 (single isomer, unassigned) [Example 547]		4%	
38%		CCC(O)(c1cc(F)c2c(c1)C(=O)N(Cc1ncc(C#N)cn1)[C@@]2(OC)c1ccc(Cl)cc1)C1(F)CCN(C)CC1 (single isomer, unassigned) [Example 575]		14%	
86%		CCC(O)(c1cc(F)c2c(c1)C(=O)N(Cc1ccc(C#N)cn1)[C@@]2(O[C@H]1CCOC1)c1ccc(Cl)cc1)C1(F)CCNCC1 (single isomer, unassigned) [Example 546]		17%	
	48%	CCCC(O)(c1cc(F)c2c(c1)C(=O)N(Cc1ccc(C#N)cn1)[C@@]2(O[C@H]1CCOC1)c1ccc(Cl)cc1)c1cn(C)cn1 (single isomer, unassigned) [Example 472]		10%	
77%		CCC(O)(c1cc(F)c2c(c1)C(=O)N(Cc1ncc(Cl)cn1)[C@@]2(O[C@H]1CCOC1)c1ccc(Cl)cc1)C1(F)CCN(C)CC1 (single isomer, unassigned) [Example 571]		38%	
